From the NIST ThermoML archive (doi:10.1016/j.jct.2007.08.005)

Columns and labels:
[1] = 308.15 K, 101.33 kPa, Liquid; for speed of sound: Sing-around technique in a fixed-path interferometer; for mass density: Vibrating tube method
[2] = xn = mol fraction of the nth substance listed; conditions: 308.15 K, 101 kPa, Liquid; for excess molar volume: Direct dilatometry; for speed of sound: Sing-around technique in a fixed-path interferometer

OCCO [1,2-ethanediol]
[1]
Conditions	speed of sound [m/s]	viscosity [mPa·s]
–	1633.4	11.35

OCCCO [propan-1,3-diol]
[1]
Conditions	mass density [kg/m3]	speed of sound [m/s]	viscosity [mPa·s]
–	1042.7	1604.5	26.44

OCCCCCO [1,5-pentanediol] + O=C1CCCN1
[2]
Conditions	excess molar volume [m3/mol]	speed of sound [m/s]	viscosity [mPa·s]
x1 = 0.0022	1e-09	–	–
x1 = 0.009	3e-09	–	–
x1 = 0.0129	5e-09	–	–
x1 = 0.0168	6e-09	–	–
x1 = 0.0269	1e-08	–	–
x1 = 0.0298	–	1597.5	9.401
x1 = 0.0326	1.5e-08	–	–
x1 = 0.0454	1.7e-08	–	–
x1 = 0.0514	–	1595.7	9.774
x1 = 0.0619	2.7e-08	–	–
x1 = 0.0915	3.4e-08	–	–
x1 = 0.1017	–	1591.8	10.74
x1 = 0.1149	4e-08	–	–
x1 = 0.1375	4.4e-08	–	–
x1 = 0.1536	–	1588.7	11.8
x1 = 0.1895	5.2e-08	–	–
x1 = 0.2008	–	1586.9	12.89
x1 = 0.2539	5.9e-08	–	–
x1 = 0.293	6.4e-08	–	–
x1 = 0.2942	–	1583.5	15.32
x1 = 0.3268	6.7e-08	–	–
x1 = 0.3769	7e-08	–	–
x1 = 0.3886	–	1580.9	18.07
x1 = 0.4209	7e-08	–	–
x1 = 0.4564	7.1e-08	–	–
x1 = 0.479	–	1578.8	21.15
x1 = 0.5091	7e-08	–	–
x1 = 0.5407	6.9e-08	–	–
x1 = 0.5779	6.6e-08	–	–
x1 = 0.582	–	1577.1	24.71
x1 = 0.601	6.1e-08	–	–
x1 = 0.6363	5.6e-08	–	–
x1 = 0.6673	5.3e-08	–	–
x1 = 0.6827	–	1575.3	29.13
x1 = 0.7035	4.7e-08	–	–
x1 = 0.7347	4.2e-08	–	–
x1 = 0.7812	–	1573	36.21
x1 = 0.7879	3.3e-08	–	–
x1 = 0.822	2.8e-08	–	–
x1 = 0.8319	–	1571.6	41.2
x1 = 0.8461	2.6e-08	–	–
x1 = 0.8694	2.3e-08	–	–
x1 = 0.8947	1.8e-08	–	–
x1 = 0.9095	–	1569.4	50.56
x1 = 0.9143	1.3e-08	–	–
x1 = 0.9392	–	1568.6	54.65
x1 = 0.9428	1.1e-08	–	–
x1 = 0.9583	7e-09	–	–
x1 = 0.9749	–	1567.3	59.95
x1 = 0.9783	3e-09	–	–

O=C1CCCN1 [2-pyrrolidinone]
[1]
Conditions	mass density [kg/m3]	speed of sound [m/s]	viscosity [mPa·s]
–	1097.14	1600	8.922

OCCCCCO [1,5-pentanediol]
[1]
Conditions	mass density [kg/m3]	speed of sound [m/s]	viscosity [mPa·s]
–	974.3	1566.1	64
